Reference: US7659306B2, “Method of increasing gastric emptying” (The Board of Regents of the University of Texas System, priority 2004, dated 2010)
“Also recorded” adds a separate entry of the source. Like-named read-outs stand apart in the source and are kept apart here.

Columns and labels:
[1] = molecular target: T1, dopamine 3 receptor (D3R) (Rattus norvegicus, UniProt P19020); assay: Gastric emptying test (phenol red method) after i.p. D3R agonist; assay type: in vivo; parameters: from tissue; host or cells: whole animal, adult male Sprague-Dawley rat (gastrointestinal tract); details: adult male Sprague-Dawley rats, 1 mg/kg i.p., 20 minutes after phenol red methylcellulose meal, mean±SEM, vehicle 78±4.86%, hydrochloride
T1 sequence (P19020 whole entry): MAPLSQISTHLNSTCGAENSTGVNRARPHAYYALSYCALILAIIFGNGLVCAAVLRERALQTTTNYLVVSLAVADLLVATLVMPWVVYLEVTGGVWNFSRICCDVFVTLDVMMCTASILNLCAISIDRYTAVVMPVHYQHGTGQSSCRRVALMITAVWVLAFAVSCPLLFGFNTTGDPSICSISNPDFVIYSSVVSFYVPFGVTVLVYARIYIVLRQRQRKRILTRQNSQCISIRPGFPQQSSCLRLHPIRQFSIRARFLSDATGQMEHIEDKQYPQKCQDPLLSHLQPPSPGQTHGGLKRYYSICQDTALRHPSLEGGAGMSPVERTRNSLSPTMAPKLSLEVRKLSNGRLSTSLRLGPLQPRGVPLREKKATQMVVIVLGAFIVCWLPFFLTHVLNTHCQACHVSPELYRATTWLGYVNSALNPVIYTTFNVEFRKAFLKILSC
Description: Values were expressed as mean±SEM.
Adult male Sprague-Dawley rats (weighing 200-250 g) were deprived of food 18 hr prior to experiments but allowed free access to water. The animals were intraperitoneally injected with a dopamine 3 receptor agonist, PD 128907 hydrochloride, at 1 mg/kg or with physiological saline (control) before administration by oral tube of 1.5 ml of pre-warmed (35° C.) 0.05% phenol red solution.

[2] = molecular target: T1, dopamine 3 receptor (D3R); assay: Electric field stimulation induced relaxation of pyloric strips in an organ bath; parameters: from tissue; host or cells: whole animal, adult male Sprague-Dawley rat (gastrointestinal tract); details: pyloric strips of adult male Sprague-Dawley rats, agonist 0.1-10 µM, dose dependent, hydrochloride
Description: The pyloric function was assessed by measuring the relaxation of pyloric strips in an organ bath in response to electric field stimulation in the presence of D3R agonist ranging from 0.1-10 µM (1 µM vs control, P<0.05; 10 μM vs control, P=0.001).
Pyloric function was assessed in an organ bath by measuring the relaxation of pyloric strips of adult male Sprague-Dawley rats in the presence of the dopamine 3 receptor agonist, PD 128907 hydrochloride.

[3] = molecular target: T1, dopamine 3 receptor (D3R); details: adult male Sprague-Dawley rats, dopamine 1 mg/kg i.p. plus nafadotride 0.1 or 1 mg/kg i.p., 20 minutes after meal
Description: Gastric emptying was assessed in adult male Sprague-Dawley rats by the phenol red method. […] Control rats received vehicle (PBS).
A solution of 50 mg phenol red in 100 ml aqueous methylcellulose (1.5%) was used as a test meal. Methylcellulose (1.5 g, 400 centipoises) was dispersed in 100 ml of hot water (80° C.) under continuous shaking. The solution was allowed to cool to 35° C., and then phenol red was added. Intensity and duration (5 hr) of agitation were kept constant to obtain solutions of reproducible viscosity.
Conscious rats were fed the 0.05% phenol red methylcellulose solution and euthanized after 20 minutes. The stomach was clamped at the pylorus and cardiac ends before removal. The stomach and its contents were homogenized with 100 ml of 0.1N NaOH. A baseline control for each phenol red solution preparation was used by mixing 1.5 ml with 100 ml of 0.1N NaOH. The mixture was then kept for 1 hr at room temperature: 5 ml of the supernatant was added to 0.5 ml of trichloroacetic acid solution (20% w/v) to precipitate the proteins. […] The solutions were then read with a spectrophotometer at a wavelength of 560 nm.
Gastric emptying (G.E.) for each rat was calculated according to the following formula: (1−Absorbance of test sample)/(Absorbance of baseline control)×100%. Values were expressed as mean±SEM. […]

reversal of the effect of dopamine on gastric emptying ([3]; listed as Nafadotride) | SMILES | gastric emptying [1] | gastric emptying ([1]; listed as D3R agonist) | electric field stimulation induced relaxation of pyloric strips [2] | reversal of the effect of dopamine on gastric emptying [3]
– | CCCN1CCO[C@@H]2c3cc(O)ccc3OC[C@H]21.Cl [PD 128907 hydrochloride] | 44% | 44±8.26% | reduced electric field stimulation induced relaxation of pyloric strips; also recorded: significant reduction in electric field stimulation induced relaxation of pyloric strips | –
partially reverse the effect of dopamine | CCCCN1CCCC1CNC(=O)c1cc(C#N)c2ccccc2c1OC (centres unmarked) [nafadotride] | – | – | – | partial reversal of the effect of dopamine on gastric emptying
